Results taken from US20210363254A1, “PHARMACEUTICAL COMBINATIONS” (Novartis AG, priority 2018, published 2021).
Where two headings read alike, the source gives them in different places.

Assays:
[1] = test system: human HSAX2655 (liposarcoma) PDX; assay: TGI PK/PD modelling, human HSAX2655 (liposarcoma) PDX rat; format: in vivo
Experimental: Compartmental population PK modeling of NVP-HDM201 was used to estimate the individual average plasma concentration for Cycle 1 and to allow comparison with preclinical average concentration for tumor stasis derived by PK/PD tumor growth modeling. […] The dashed line at concentration of ≈19 ng/mL represents average tumor stasis determined from PK/PD modeling of preclinical data from a liposarcoma (HSAX2655) patient-derived xenograft rat model.

[2] = test system: Colon 26 tumors; assay: Anti-tumor activity in Colon 26 syngeneic tumor model (8020 Colon 26-XEF); format: in vivo, mouse
Experimental: (§1) Time to endpoint. Balb/c mice were implanted with 2×10^5 Colon 26 cells subcutaneously. Mice were treated with HDM201 at 40 mg/kg×3 for every 3h po on Days 12, 19 and 26 post cell implant, and the aPD-1 antibody at 5 mg/kg ip on days 12, 15, 19, and 22. End point was defined as tumor volume equal or greater than 1000 mm^3. Log Rank, p<0.05.
as §1, with “FIG. 25: Individual Tumor Growth Curves (8020 Colon 26-XEF) Individual tumor growth curves.” for “Time to endpoint.”, “equal to” for “equal”, “The horizontal dashed line indicates the tumor endpoint tumor size (1000 mm^3).” for “Log Rank, p<0.05.”
Colon 26 cells were harvested at 80-95% confluence, washed, and re-suspended in cold PBS at a concentration of 2×10^6 cells/ml. Finally, 0.2×10^6 cells in a total volume of 100 μL were implanted subcutaneously (sc) into the upper right flank of naive Balb/c mice.
For Study 8020 Colon 26-XEF, animals were randomized and enrolled onto the study when tumor volumes reached a range of 27-60 mm^3 on day 10 post cell implantation. All treatments were initiated three days later on day 13. For the PD studies, animals were randomized when the mean tumor volume reached 100˜120 mm^3.
The designs of studies 7628 Colon 26-XPD, 8063 Colon 26-XPD and 8020 Colon 26-XEF including dose and schedule for treatment groups are summarized in Tables Ex3.2 to Ex3.4. Animals were weighed on dosing day(s) and the dosing volume was adjusted to body weight to 10 ml/kg. Tumor dimensions and body weights were recorded at the time of randomization and twice weekly thereafter for the study duration. The following data were collected after each day of data collection: incidence of mortality, individual and group average body weights, and individual and group average tumor volume.
Percent treatment/control (% T/C) and percent regression (% Reg) values were calculated using the following formulas, respectively:
% Reg=100×ΔT/Tinitial if ΔT<0 […]
A Kaplan-Meier survival analysis was performed to compare differences in time to endpoint (TTE). Mice were scored as achieving tumor endpoint once tumor volume exceeded 1000 mm^3 and scored as dead (“1”). […]
The anti-tumor activity of HDM201 with aPD1 antibody targeting the PD-1/PD-L1 axis was explored in the Colon 26 murine syngeneic model (8020 Colon 26-XEF). […] Tumor growth delay was assessed as median time to endpoint using the Kaplan-Meier analysis (GraphPad v7.0).

In the case of `COc1ncc(-c2nc3c(n2C(C)C)[C@H](c2ccc(Cl)cc2)N(c2cc(Cl)cn(C)c2=O)C3=O)c(OC)n1` [HDM201, (S)-5-(5-Chloro-1-methyl-2-oxo-1,2-dihydro-pyridin-3-yl)-6-(4-chloro-phenyl)-2-(2,4-dimethoxy-pyrimidin-5-yl)-1-isopropyl-5,6-dihydro-1H-pyrrolo[3,4-d]imidazol-4-one], the “Average concentration for tumor stasis” value [1] is reported as 19 ng/mL, the “Average concentration for tumor stasis” value ([1]; listed as NVP-HDM201) is reported as “≈ 19 ng/mL” and the “animals with partial response” value ([2]; 10 mice per group) is reported as 1/10. For the same compound, the “complete tumor regression / complete responses (CR), animals” value ([2]; 10 mice per group, HDM201 40 mg/kg 3×q3h po weekly, aPD1 Ab 5 mg/kg ip) was “no CR”, the tumor growth ([2]; HDM201 40 mg/kg) was “inhibited tumor growth” and the “median time to endpoint (TV≥1000 mm^3), Kaplan-Meier” value ([2]; HDM201 40 mg/kg 3×q3h po weekly, aPD1 Ab 5 mg/kg ip, vehicle 23 days) was 31.5 days.
